In patent publication US9426996B2, “Use of benzoxaboroles as volatile antimicrobial agents on meats, plants, or plant parts” (AgroFresh Inc., priority 2013, dated 2016):

Key:
Botrytis cinerea [1] = test: in vivo sublimation bioassay on fruit, 1 mg/L (Example 31); details: for Incidence (%) / Severity (0-4): 1 mg/L sublimed, three day treatment plus three days at 21° C.
Method: (§1) To assess the in vivo activity of volatile antimicrobial Compounds A and B (FIG. 1) in fruit, a volatile bioassay is developed using apple, pear, orange, strawberry, grape and blueberry.
(§2) Two apples, 2 oranges, 2 pears, 8 strawberries, 16 grapes or 30 blueberries (per replicate, in duplicate) are placed in a clamshell with the stem end facing up for all fruits except for strawberry (stem end facing downwards). A fresh wound is inoculated with 20 μL 1×10^6 per mL Penicillium expansum spore suspension (apple and pear), 20 μL 1×10^6 per mL Penicillium digitatum spore suspension (orange), and 20 μL (strawberry and grape) or 10 μL (blueberry) of 1×10^6 per mL Botrytis cinerea spore suspension. The clamshells are placed inside a 117 L Rubbermaid storage box (Cat #2244) with lids closed. […] After treatment, fruits are held for an additional three days at 21° C., then evaluated for disease incidence (mm diameter of browning or water-soaked lesions) and pathogen sporulation (mm diameter) for apple, pear and orange, as well as Botrytis cinerea disease incidence (%) and severity (0 to 4) for strawberry, grape and blueberry, with results summarized in Table 30.

Penicillium digitatum [2] = test: as above
Method: as §1, §2

Penicillium expansum [3] = test: as above; details: 1 mg/L sublimed, three day treatment plus three days at 21° C.
Method: as §1, §2

Botrytis cinerea [4] = test: in vitro spore germination assay, temperature regimes; type: cell-based; details: B. cinerea spores; for inhibition at 0.035 µg/mL: 0.035 mg/L; for inhibition at 0.07 µg/mL: 0.07 mg/L; for inhibition at 0.14 µg/mL: 0.14 mg/L
Method: (§3) In order to assess the activity of Compound A as a volatile fungicide, an in vitro assay is developed to evaluate spore germination. Two mL of water agar is poured in 3.5 cm Petri plates. […] Plates are then incubated for either one day at 0° C., five day at 0° C., or five day at 0° C. plus an additional one or two days at 21° C.

Penicillium expansum [5] = test: as above; type: cell-based; details: P. expansum spores; for inhibition at 0.035 µg/mL: 0.035 mg/L; for inhibition at 0.07 µg/mL: 0.07 mg/L; for inhibition at 0.14 µg/mL: 0.14 mg/L
Method: as §3

Penicillium digitatum [6] = test: in vivo volatile bioassay using orange fruit (Compound A); details: oranges
Method: In order to assess the in vivo activity of volatile antimicrobial Compound A in fruit, a volatile bioassay is developed using orange fruit. Two oranges are placed inside a PET clamshell. Three fresh wounds per orange are inoculated with 30 μL of 1×10^6 per mL Penicillium digitatum spore suspension. The clamshells are placed inside a 10.8-cup SnapWare airtight container (Model #109842). A 42.5 mm Whatman #1 filter disk (Cat. No. 1001-042) is placed on a watch glass. Compound A is dissolved in acetone and added to the disks in a dose dependent manner to produce a final headspace concentration of 2, 10, or 50 mg/L. The acetone is permitted to evaporate for five minutes. The containers are then closed with the lids and placed for three days at 21° C. After storage, fruits are evaluated for disease incidence (mm diameter of the rot) and pathogen sporulation (mm diameter) on the surface of the fruits for an additional two days at 21° C., with results summarized in Table 18.

Penicillium digitatum [7] = test: in vivo contact drench assay on oranges
Method: In order to assess the activity of Compound A (FIG. 1) as a contact drench fungicide, an in vivo assay is developed. […] Compound A is dissolved in water to achieve a final treatment solution concentration of 250, 50, or 10 mg/L. The fruit is dipped in Compound A solution for 1 minute and allowed to dry for 1 hour. Fruit wounds are then inoculated with 30 μL of 1×10^6 per mL Penicillium expansum spore suspension (apple) or Penicillium digitatum spore suspension (orange). Clamshells are then placed in a 10.8-cup SnapWare airtight container (Model #109842) and incubated for 3 days at 21° C.

Botrytis cinerea [8] = test: in vivo strawberry assay comparing fog and sublimation; details: 10 mg/L, three day treatment plus three days at 21° C.
Method: To compare the ability of Compound A when actively volatilized by different mechanisms, an in vivo assay using strawberry is performed. Eight strawberries are placed in a clamshell with stem end facing downwards. […] The clamshell is placed in a 10.8-cup SnapWare airtight container (Model #109842) and closed with the lids. Compound A is dissolved in acetone and volatilized through a sealable ½ inch side port by an ES-100-H SmartFog system (Reno, Nev.). Alternatively, Compound A, dissolved in acetone, is pipetted onto a cotton strip, where the acetone is allowed to evaporate for five minutes, and then introduced into the container by a sublimation device (copper tube heated to 200° C. with fan flow at 0.5 L/min) to achieve a final headspace concentration of 10 mg/L. The fruits are stored for three days at 21° C. After the three days of treatment, fruit are stored for an additional three days at 21° C., and then evaluated for incidence (%) and severity of disease (0 to 4).

[9] = Orange, 1 mg/L sublimed, three day treatment plus three days at 21° C.

OB1OCc2cc(F)ccc21 [Compound A]
in vivo antimicrobial control of B. cinerea (Botrytis cinerea [1]; 1 mg/L, volatile fungicide on different hosts): 100%
Incidence (%) (Botrytis cinerea [1]; Blueberry): 0.0%
Severity (0-4) (Botrytis cinerea [1]; Blueberry): 0.0
Incidence (%) (Botrytis cinerea [1]; Grape): 0.0%
Severity (0-4) (Botrytis cinerea [1]; Grape): 0.0
Incidence (%) (Botrytis cinerea [1]; Strawberry): 0.0%
Severity (0-4) (Botrytis cinerea [1]; Strawberry): 0.0
in vivo antimicrobial control of P. digitatum (Penicillium digitatum [2]; 1 mg/L, volatile fungicide): 100%
Sporulation (mm) (Penicillium digitatum [2]; [9]): 0.0 mm
Water soaked lesion (Penicillium digitatum [2]; [9]): 0.0 mm
Browning (mm) (Penicillium expansum [3]; Apple): 0.8 mm
Sporulation (mm) (Penicillium expansum [3]; Apple): 0.0 mm
Browning (mm) (Penicillium expansum [3]; Pear): 4.7 mm
Sporulation (mm) (Penicillium expansum [3]; Pear): 0.0 mm
inhibition at 0.035 µg/mL (Botrytis cinerea [4]; 24 h, 1 day, 0° C.): 0%
inhibition at 0.07 µg/mL (Botrytis cinerea [4]; 24 h, 1 day, 0° C.): 0%
inhibition at 0.14 µg/mL (Botrytis cinerea [4]; 24 h, 1 day, 0° C.): 0%
inhibition at 0.035 µg/mL (Botrytis cinerea [4]; 120 h, 5 day, 0° C.): 0%
inhibition at 0.07 µg/mL (Botrytis cinerea [4]; 120 h, 5 day, 0° C.): 0%
inhibition at 0.14 µg/mL (Botrytis cinerea [4]; 120 h, 5 day, 0° C.): 0%
inhibition at 0.035 µg/mL (Botrytis cinerea [4]; 5 day, 0° C. 1 day, 21° C.): 0%
inhibition at 0.07 µg/mL (Botrytis cinerea [4]; 5 day, 0° C. 1 day, 21° C.): 0%
inhibition at 0.14 µg/mL (Botrytis cinerea [4]; 5 day, 0° C. 1 day, 21° C.): 0%
inhibition at 0.035 µg/mL (Penicillium expansum [5]; 24 h, 1 day, 0° C.): 0%
inhibition at 0.07 µg/mL (Penicillium expansum [5]; 24 h, 1 day, 0° C.): 0%
inhibition at 0.14 µg/mL (Penicillium expansum [5]; 24 h, 1 day, 0° C.): 0%
inhibition at 0.035 µg/mL (Penicillium expansum [5]; 120 h, 5 day, 0° C.): 0%
inhibition at 0.07 µg/mL (Penicillium expansum [5]; 120 h, 5 day, 0° C.): 0%
inhibition at 0.14 µg/mL (Penicillium expansum [5]; 120 h, 5 day, 0° C.): 0%
inhibition at 0.035 µg/mL (Penicillium expansum [5]; 5 day, 0° C. 1 day, 21° C.): 0%
inhibition at 0.07 µg/mL (Penicillium expansum [5]; 5 day, 0° C. 1 day, 21° C.): 0%
inhibition at 0.14 µg/mL (Penicillium expansum [5]; 5 day, 0° C. 1 day, 21° C.): 0%
Sporulation (mm) (Penicillium digitatum [6]; 2 mg/L, Day 0): 0 mm
Water soaked lesions (mm) (Penicillium digitatum [6]; 2 mg/L, Day 0): 0 mm
Sporulation (mm) (Penicillium digitatum [6]; 2 mg/L, Day 1): 0.4 mm
Water soaked lesions (mm) (Penicillium digitatum [6]; 2 mg/L, Day 1): 0 mm
Sporulation (mm) (Penicillium digitatum [6]; 2 mg/L, Day 2): 2.7 mm
Water soaked lesions (mm) (Penicillium digitatum [6]; 2 mg/L, Day 2): 13.4 mm
Sporulation (mm) (Penicillium digitatum [6]; 10 mg/L, Day 0): 0.5 mm
Water soaked lesions (mm) (Penicillium digitatum [6]; 10 mg/L, Day 0): 0 mm
Sporulation (mm) (Penicillium digitatum [6]; 10 mg/L, Day 1): 0.4 mm
Water soaked lesions (mm) (Penicillium digitatum [6]; 10 mg/L, Day 1): 0 mm
Sporulation (mm) (Penicillium digitatum [6]; 10 mg/L, Day 2): 2.5 mm
Water soaked lesions (mm) (Penicillium digitatum [6]; 10 mg/L, Day 2): 9 mm
Sporulation (mm) (Penicillium digitatum [6]; 50 mg/L, Day 0): 0 mm
Water soaked lesions (mm) (Penicillium digitatum [6]; 50 mg/L, Day 0): 0 mm
Sporulation (mm) (Penicillium digitatum [6]; 50 mg/L, Day 1): 0 mm
Water soaked lesions (mm) (Penicillium digitatum [6]; 50 mg/L, Day 1): 0 mm
Sporulation (mm) (Penicillium digitatum [6]; 50 mg/L, Day 2): 1.2 mm
Water soaked lesions (mm) (Penicillium digitatum [6]; 50 mg/L, Day 2): 5 mm
Sporulation (mm) (Penicillium digitatum [7]; dip 10 mg/L): 16.6 mm
Water soaked (mm) (Penicillium digitatum [7]; dip 10 mg/L): 27.5 mm
Sporulation (mm) (Penicillium digitatum [7]; dip 50 mg/L): 12.0 mm
Water soaked (mm) (Penicillium digitatum [7]; dip 50 mg/L): 18.8 mm
Sporulation (mm) (Penicillium digitatum [7]; dip 250 mg/L): 0.4 mm
Water soaked (mm) (Penicillium digitatum [7]; dip 250 mg/L): 1.7 mm
Incidence (%) (Botrytis cinerea [8]; Fog): 6.3%
Severity (0 to 4) (Botrytis cinerea [8]; Fog): 0.03
Incidence (%) (Botrytis cinerea [8]; Sublimation): 0.0%
Severity (0 to 4) (Botrytis cinerea [8]; Sublimation): 0.0
